This note sets out measurements from paper PMC11898701, “Evaluating Therapeutic Efficacy of the Vascular Disrupting Agent OXi8007 Against Kidney Cancer in Mice” (Cancers, 2025).

One data set relates to Renca cells. Kind of data set: Wound (scratch) assay. The format is cell-based, mouse. As to conditions: ≥ 2.5 µM, over 48 h. How it is done: Renca cells were plated at a seeding density of approximately 3 × 10^5 cells per well in a 6-well plate and allowed to reach confluency before treatment. A scratch was made with a sterile 10 µL pipette tip in each well before removing the medium and any detached cells. […] Hoechst 33342 was added to each well at a final concentration of 1 µg/mL and incubated for 15 min at 37 °C to stain the cell nuclei. Gen5 version 3.14 software was used for cellular and statistical analysis of the wound closure data.

Data set [1] can be described thus: Blood pressure assessment (CODA system). The format is in vivo, mouse. As for the experimental part:
Blood pressure was measured using a CODA system (Kent Scientific, Torrington, CT, USA) on 5 adult male BALB/c mice. Mice were anesthetized with 2% isoflurane in oxygen at 1 dm^3/min and placed on the CODA IR heating pad with a feedback rectal temperature probe and nosecone to maintain anesthesia. An occlusion cuff and VPR cuff were placed on the tail. The baseline measurement was recorded over 30 min, then OXi8007 (250 mg/kg or 325 mg/kg) was administered IP and the blood pressure measurement resumed for 45 min. As positive and negative controls, hydralazine (1 mg/kg) or saline, respectively, were injected IP.

The subject of data set [2] is orthotopic Renca-luc tumors. Kind of data set: Long-term therapy with OXi8007 and/or cabozantinib. Type of data set: in vivo, mouse. How it is done:
(§1) OXi8007, synthesized by the Pinney Laboratory using published procedures, was dissolved in saline, verified to be in the pH range 7.3 to 7.5, and dosed at 250 mg/kg (IP). Cabozantinib (in PEG400 and ultrapure H2O (Milli-Q)) was administered at 3 mg/kg by oral gavage. Anti-PD-1 (10 mg/kg, Bio X Cell, Lebanon, NH, USA) and anti-CTLA-4 (5 mg/kg, Bio X Cell, Lebanon, NH) solutions were administered (IP) on the day before OXi8007 […].
We evaluated the longitudinal effects of OXi8007 alone and in combination with drugs currently favored for treating kidney cancer. For Renca-luc tumor-bearing mice, BLI was performed at least once a week to estimate tumor size, and mice were weighed weekly to adjust the dose as needed. Two treatment cohorts examined syngeneic orthotopic Renca-luc tumors in male BALB/c mice. Treatment started when the tumors reached about 1 × 10^6 photons/s peak total flux on BLI. The first cohort examined OXi8007 with cabozantinib. Mice were divided into four groups. Mice were assigned to groups as soon as there were sufficient to add the same numbers of animals to each group. The specific assignment was defined using the random number function in Excel. […] The second cohort was treated with CKIs and OXi8007 using four groups: Group 5 (OXi8007 + anti-PD-1 (10 mg/kg) + anti-CTLA-4 (5 mg/kg); n = 4), Group 6 (saline + anti-PD-1+ anti-CTLA-4; n = 3), Group 7 (saline + anti-PD-1; n = 3), and Group 8 (saline + anti-CTLA-4; n = 4). CKI antibodies were administered thrice weekly (M, W, F) for the first two weeks after the first treatment with OXi8007, which was administered twice weekly. […] Initial tumor growth was confirmed by palpation, and the mice were assigned to groups such that the first mouse with a confirmed tumor was assigned to Group 5, next to Group 6, etc., ensuring that all groups had both faster- and slower-growing tumors. […] Tumor size (BLI signal) and mouse body weights were compared using an ANOVA and multiple comparisons at a significance level of p < 0.05. Kaplan–Meier survival curves were compared using a non-parametric log-rank test using SAS software (SAS Institute Inc., SAS Viya for learners 4, Cary, NC, USA).

Data set [3] has as its system orthotopic XP258 human tumor xenografts. The data set is described as follows: Long-term therapy of XP258 human tumor xenografts. The format is in vivo, mouse.
Source text: The animal procedures were approved by the UT Southwestern Medical Center Institutional Animal Care and Use Committee under APNs 2017-102152 and 2018-102344-CORE. Renca-luc orthotopic tumors were induced by inserting tumor tissue (~1 mm^3) harvested from a donor mouse into the right kidney of syngeneic BALB/c mice (age 8 weeks, male and female; Envigo, Indianapolis, IN, USA), as described previously. Orthotopic XP258 tumors (derived from a patient with pT3aN0M1 clear cell RCC) were obtained from the UT Southwestern Kidney Cancer SPORE [53, 54] and maintained by serial passage. Tumors were induced by inserting tumor tissues from a donor tumor into the left kidney capsule of female NOD/SCID mice (Envigo).
as §1
We evaluated the longitudinal effects of OXi8007 alone and in combination with drugs currently favored for treating kidney cancer. For Renca-luc tumor-bearing mice, BLI was performed at least once a week to estimate tumor size, and mice were weighed weekly to adjust the dose as needed. Two treatment cohorts examined syngeneic orthotopic Renca-luc tumors in male BALB/c mice. Treatment started when the tumors reached about 1 × 10^6 photons/s peak total flux on BLI. The first cohort examined OXi8007 with cabozantinib. Mice were divided into four groups. Mice were assigned to groups as soon as there were sufficient to add the same numbers of animals to each group. The specific assignment was defined using the random number function in Excel. As such, each group included both faster- and slower-growing tumors. […]
On the technique in general: In xenograft studies the graft and the host belong to different species.

Molecules are shown by their SMILES.

As for `COc1ccc2c(C(=O)c3cc(OC)c(OC)c(OC)c3)c(-c3ccc(OC)c(OP(=O)(O)O)c3)[nH]c2c1` [OXi8007], the Wound closure entry in the data set on Renca cells is “significantly depressed”. In data set [1] (250 mg/kg IP), the “Duration of temporary elevation in blood pressure” value is reported as “less than 20 min”. The “Diastolic blood pressure after administration” value in data set [1] (250 mg/kg IP, 5 male BALB/c mice, baseline 84 ± 2) worked out at 82 mmHg. In addition, the “Mean blood pressure after administration” value in data set [1] (250 mg/kg IP, 5 male BALB/c mice, baseline 94 ± 2) stood at 94 mmHg. The “Systolic blood pressure after administration” value in data set [1] (250 mg/kg IP, 5 male BALB/c mice, baseline 115 ± 3) is 117 mmHg. Moreover, the “Effect on mouse blood pressure” value in data set [1] (250 mg/kg IP, systolic, diastolic or mean) is “minimal effect”; in data set [1] (325 mg/kg IP) it was “larger transient change”. In addition, the “Toxicity in adult mice” value in data set [2] (250 mg/kg IP twice weekly up to 7 weeks) was “no overt toxicity”. Moreover, the “Body weight at week 7 versus baseline” value in data set [2] (Renca-luc BALB/c mice, 250 mg/kg IP twice weekly) is “significant loss in body weight”. The “Body weight loss versus pre-treatment baseline” value in data set [2] (Renca-luc BALB/c mice, OXi8007 alone) is on record as ~ 11%. Further, the “Tumor growth delay (BLI)” value in data set [2] (Renca-luc, versus control) is listed as “no significant growth delay”. Further, the “Overall survival versus control” value in data set [2] (Renca-luc, 250 mg/kg IP twice weekly, log-rank p = 0.053) was “no overall survival benefit”. Besides, in data set [3] (XP258, long-term therapy, monotherapy or combined), the “Tumor weights at sacrifice” value is on record as “much smaller tumors”. The Survival versus controls entry in data set [3] (XP258 in NOD/SCID mice, OXi8007 250 mg/kg IP twice weekly, cabozantinib 3 mg/kg oral daily) was “significantly enhanced survival”.
